Measurements published in patent publication US7790717B2, “Spiro-oxazolidinone compounds and their use as metabotropic glutamate receptor potentiators” (AstraZeneca AB, priority 2006, dated 2010).

Biological target: T1, human mGluR2 (Homo sapiens, UniProt Q14416)
T1 construct: expressed in transfected cells; host or cells: CHO cells, stably transfected; membrane preparation
Assay: [35S]-GTPγS binding assay of mGluR2 receptor activation (allosteric activator activity)
Format: biochemical
Details: membranes from CHO cells stably expressing human mGluR2; in presence of 1 μM glutamate
Procedure: A [^35S]-GTPγS binding assay was used to functionally assay mGluR2 receptor activation. The allosteric activator activity of compounds at the human mGluR2 receptor were measured using a [^35S]-GTPγS binding assay with membranes prepared from CHO cells which stably express the human mGluR2. The assay is based upon the principle that agonists bind to G-protein coupled receptors to stimulate GDP-GTP exchange at the G-protein. Since [^35S]-GTPγS is a non-hydrolyzable GTP analog, it can be used to provide an index of GDP-GTP exchange and, thus, receptor activation. The GTPγS binding assay therefore provides a quantitative measure of receptor activation.
Membranes were prepared from CHO cells stably transfected with human mGluR2. Membranes (30 μg protein) were incubated with test compound (3 nM to 300 μM) for 15 minutes at room temperature prior to the addition of 1 μM glutamate, and incubated for 30 min at 30° C. in 500 μL assay buffer (20 mM HEPES, 100 mM NaCl, 10 mM MgCl2), containing 30 μM GDP and 0.1 nM [^35S]-GTPγS (1250 Ci/mmol). Reactions were carried out in triplicate in 2 mL polypropylene 96-well plates. Reactions were terminated by vacuum filtration using a Packard 96-well harvester and Unifilter-96, GF/B filter microplates. The filter plates were washed 4×1.5 mL with ice-old wash buffer (10 mM sodium phosphate buffer, pH 7.4). The filter plates were dried and 35 μL of scintillation fluid (Microscint 20) was added to each well. The amount of radioactivity bound was determined by counting plates on a Packard TopCount. Data was analyzed using GraphPad Prism, and […] and Emax values (relative to the maximum glutamate effect) were calculated using non-linear regression.

T1 sequence (Q14416 19-872): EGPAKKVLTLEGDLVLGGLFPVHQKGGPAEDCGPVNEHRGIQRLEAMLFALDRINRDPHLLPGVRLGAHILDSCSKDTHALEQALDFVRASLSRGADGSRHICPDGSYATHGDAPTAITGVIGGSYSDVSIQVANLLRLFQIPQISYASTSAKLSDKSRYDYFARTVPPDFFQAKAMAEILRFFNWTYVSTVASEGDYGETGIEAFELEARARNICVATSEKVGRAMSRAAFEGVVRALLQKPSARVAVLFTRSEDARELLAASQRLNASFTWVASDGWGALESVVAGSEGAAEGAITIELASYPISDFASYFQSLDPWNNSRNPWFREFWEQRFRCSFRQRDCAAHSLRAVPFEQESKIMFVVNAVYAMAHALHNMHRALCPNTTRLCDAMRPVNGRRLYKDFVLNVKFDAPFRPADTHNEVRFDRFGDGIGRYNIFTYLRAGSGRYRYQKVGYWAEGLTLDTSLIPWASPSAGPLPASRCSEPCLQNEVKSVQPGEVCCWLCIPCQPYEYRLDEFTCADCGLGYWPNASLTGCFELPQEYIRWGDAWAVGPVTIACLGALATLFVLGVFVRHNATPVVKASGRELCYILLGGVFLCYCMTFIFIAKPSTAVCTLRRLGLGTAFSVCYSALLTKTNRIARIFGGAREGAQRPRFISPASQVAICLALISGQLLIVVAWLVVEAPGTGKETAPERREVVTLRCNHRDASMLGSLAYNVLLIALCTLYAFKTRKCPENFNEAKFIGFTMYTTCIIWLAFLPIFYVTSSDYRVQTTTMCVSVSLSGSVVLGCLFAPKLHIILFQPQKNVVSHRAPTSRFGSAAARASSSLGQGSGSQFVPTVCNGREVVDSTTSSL

| Compound | EC50 |
| --- | --- |
| O=C1OC2(CCC3(CC2)OCCO3)CN1Cc1ccc(-c2ccc(F)cc2)cc1 [Example 1.49, 3-(4′-Fluoro-biphenyl-4-ylmethyl)-1,9,12-trioxa-3-aza-dispiro[4.2.4.2]tetradecan-2-one] | 381 nM |
| O=C1OC2(CCCCC2)CN1Cc1ccc(-c2ccc(NCCN3CCOCC3)nc2)cc1 [Example 1.30, 3-{4-[6-(2-Morpholin-4-yl-ethylamino)-pyridin-3-yl]-benzyl}-1-oxa-3-aza-spiro[4.5] decan-2-one] | 1000 nM |

Continued, values first:

| EC50 | Compound |
| --- | --- |
| 326 nM | O=C1OC2(CCCCC2)CN1Cc1ccc(-c2ccccc2CN2CCOCC2)cc1 [Example 1.1, 3-(2′-Morpholin-4-ylmethyl-biphenyl-4-ylmethyl)-1-oxa-3-aza-spiro[4.5]decan-2-one] |
| 95 nM | O=C1OC2(CCCCC2)CN1Cc1ccc(-c2ccccc2)cc1 [Example 3.2, 3-Biphenyl-4-ylmethyl-1-oxa-3-aza-spiro[4.5]decan-2-one] |
| 14 nM | O=C1OC2(CCCCC2)CN1Cc1ccc(-c2ccc(Oc3ccccc3)cc2)cc1 [Example 1.6, 3-(4′-Phenoxy-biphenyl-4-ylmethyl)-1-oxa-3-aza-spiro[4.5]decan-2-one] |
